# Data published in US20150202291A1, “COMBINATIONS OF CHECKPOINT INHIBITORS AND THERAPEUTICS TO TREAT CANCER” (COGNATE BIOSERVICES, INC., priority 2013, published 2015).
# Tests used:
# [1] = tested on: GL261 murine glioma; assay: Intracranial GL261 glioma model, flow cytometry of tumor and lymph node cell populations; assay type: in vivo, C57BL/6 mice; settings: day 16 post-implant, 72 h after second treatment
# Experimental: There may be limited endogenous immune response to tumor in C57BL/6 mice intracranially implanted with GL261 murine glioma (FIG. 1A). Mice were intracranially implanted with GL261 murine glioma and then administered PBS (1×) or lysate-pulsed DC vaccine subcutaneously on days 3 and 13 post-tumor implant. On day 16, 72 h after the second treatment, mice were euthanized and spleen, lymph, and brain hemispheres harvested for processing. […] To determine the overall physiologic effect of these cell populations, two groups of GL261 glioma-bearing mice (control and DC vaccine-treated) were maintained and monitored survival.
# It was hypothesized that anti-tumor response promoted by the vaccination treatment is mitigated by PD-1/PD-L1 signaling in the tumor microenvironment. […] To evaluate this population, two additional therapies to control and DC-vaccine treatment were examined: anti-PD-1 mAb-treated and combination DC vaccine with anti-PD-1 mAb-treated groups. Spleen, lymph, and brain hemispheres harvested for processing on day 16 post-implant (72 h after second treatment). […] To evaluate therapeutic benefit, mice were implanted, treated, and monitored for survival.
# The inhibitory myeloid population was depleted utilizing Ly6C depleting Ab or the clinically-relevant CSF1r inhibitory drug PLX3397. […]
# [2] = tested on: GL261 murine glioma; assay: Intracranial GL261 glioma model, survival; assay type: in vivo, C57BL/6 mice; settings: well-established intracranial GL261 glioma
# Experimental: The inhibitory myeloid population was depleted utilizing Ly6C depleting Ab or the clinically-relevant CSF1r inhibitory drug PLX3397. […] Spleen, lymph, and brain hemispheres harvested for processing on day 16 post-implant (72 h after second treatment).
# Bone marrow-derived DC and vaccination. […] Briefly, bone marrow cells were cultured in a humidified atmosphere of 5% CO2 at 37° C. overnight in complete RPMI (Mediatech, Inc. Herndon, Va.) (supplemented with 10% FBS, 1% (v/v) penicillin and streptomycin). […]
# [3] = tested on: advanced, treatment-refractory malignancies; settings: cited from earlier work
# [4] = tested on: diffuse large B-cell lymphoma (DLBCL); settings: cited from earlier work
molecule,measurement,setting,value
FC(F)(F)c1ccc(CNc2ccc(Cc3c[nH]c4ncc(Cl)cc34)cn2)cn1 [PLX3397],activated tumor-infiltrating lymphocytes (CD3+CD8+CD25+),[1],significant tumor-infiltrating population
same,"inhibitory myeloid population (Ly6C+, PD-L1+) in tumor",[1],absence
same,survival,[2],entirely recovered survival benefit
BMS-936558: fully human IgG4 monoclonal antibody targeting PD-1,tumor regressions,"[3]; advanced, treatment-refractory malignancies, biweekly administration",durable partial or complete regressions
same,clinical activity,[3]; subjects with non-small cell lung cancer (NSCLC),substantial clinical activity
CT-011: humanized IgG1 monoclonal antibody against PD-1,activity of natural killer cells,[4]; phase II trial finding,augments the activity of natural killer cells
same,subjects progression-free at the end of the follow-up period,"[4]; phase II, DLBCL after autologous stem cell transplantation, control group 47%",70%
same,subjects alive,"[4]; phase II, DLBCL after autologous stem cell transplantation, control group 62%",82%
